According to PubChem BioAssay AID1919002 (Molecular Pharmacology Branch, DTP, NCI, 2023):
pIC50: −log10 of the molar value. Several values for one entry are separate records, joined by “and”; a condition that tells them apart may be missing. Equal values may be shown once.

Test system: 743489-274-T-PDC complex spheroid growth
Experiment: Anticancer human tumor 743489-274-T-PDC patient-derived renal cell carcinoma cell line growth inhibition [AhR]
Settings: for viability, T/C: stronger effect = lower value
In short: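 Complex tumor spheroids co-cultured with HUVEC and human MSC stroma; AhR antagonists tested in combination with standard-of-care and investigational agents. Top concentration at or near clinical Cmax (else 10 microM), half-log dilutions; growth expressed as percent test/control.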

[1] = curve of first compound, second compound 0.1 µM
[2] = curve of first compound, second compound 0.316 µM
[3] = curve of first compound, second compound 1 µM
[4] = curve of first compound, second compound 3.16 µM
[5] = curve of first compound, second compound 10 µM
[6] = second compound 0.1 µM, first compound 0.0316 µM
[7] = second compound 0.1 µM, first compound 0.1 µM
[8] = second compound 0.1 µM, first compound 0.316 µM
[9] = second compound 0.1 µM, first compound 1 µM
[10] = second compound 0.1 µM, first compound 3.16 µM
[11] = second compound 0.1 µM, first compound 10 µM
[12] = second compound 0.316 µM, first compound 0.0316 µM
[13] = second compound 0.316 µM, first compound 0.1 µM
[14] = second compound 0.316 µM, first compound 0.316 µM
[15] = second compound 0.316 µM, first compound 1 µM
[16] = second compound 0.316 µM, first compound 3.16 µM
[17] = second compound 0.316 µM, first compound 10 µM
[18] = second compound 1 µM, first compound 0.0316 µM
[19] = second compound 1 µM, first compound 0.1 µM
[20] = second compound 1 µM, first compound 0.316 µM
[21] = second compound 1 µM, first compound 1 µM
[22] = second compound 1 µM, first compound 3.16 µM
[23] = second compound 1 µM, first compound 10 µM
[24] = second compound 3.16 µM, first compound 0.0316 µM
[25] = second compound 3.16 µM, first compound 0.1 µM
[26] = second compound 3.16 µM, first compound 0.316 µM
[27] = second compound 3.16 µM, first compound 1 µM
[28] = second compound 3.16 µM, first compound 3.16 µM
[29] = second compound 3.16 µM, first compound 10 µM
[30] = second compound 10 µM, first compound 0.0316 µM
[31] = second compound 10 µM, first compound 0.1 µM
[32] = second compound 10 µM, first compound 0.316 µM
[33] = second compound 10 µM, first compound 1 µM
[34] = second compound 10 µM, first compound 3.16 µM
[35] = second compound 10 µM, first compound 10 µM
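Also: spheroids exposed to agents for 7 days before readout.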
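For viability, T/C in this document: 100% = DMSO vehicle control wells.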

Compound	pIC50 [1]	pIC50 [2]	pIC50 [3]	pIC50 [4]	pIC50 [5]	viability, T/C [6] [%]	viability, T/C [7] [%]	viability, T/C [8] [%]	viability, T/C [9] [%]	viability, T/C [10] [%]	viability, T/C [11] [%]	viability, T/C [12] [%]	viability, T/C [13] [%]	viability, T/C [14] [%]	viability, T/C [15] [%]	viability, T/C [16] [%]	viability, T/C [17] [%]	viability, T/C [18] [%]	viability, T/C [19] [%]	viability, T/C [20] [%]	other results
COc1ccc([C@@H](O)c2cc(-c3ncnc4cc(N5CCOCC5)ccc34)c(F)cc2Cl)nn1 + CC(CO)NC(=O)c1cc(-c2ccc(Cl)cc2)nn(-c2cnn(C)c2)c1=O	5.51	5.43	5.49	5.59	5.56	103	96.8	92.4	86	48.8	28.8	86	87.8	89.4	78.2	54	25.2	87.9	89.4	88.2	viability, T/C [21]: 77.9%; viability, T/C [22]: 50.7%; viability, T/C [23]: 25.5%; viability, T/C [24]: 92.3%; viability, T/C [25]: 81.7%; viability, T/C [26]: 87.3%; viability, T/C [27]: 73.9%; viability, T/C [28]: 45%; viability, T/C [29]: 25.7%; viability, T/C [30]: 101%; viability, T/C [31]: 92%; viability, T/C [32]: 93.8%; viability, T/C [33]: 79.3%; viability, T/C [34]: 45.5%; viability, T/C [35]: 20.9%
NS(=O)(=O)OCC1CC(n2ccc3c(NC4CCc5ccccc54)ncnc32)CC1O (configuration not stated) + Cc1cncc(-c2nc(NCCc3c[nH]c4ccccc34)c3ncn(C(C)C)c3n2)c1	< 5.00	< 5.00	< 5.00	< 5.00	< 5.00	105	98.2	99.8	112	128	154	93.2	92.7	110	125	136	139	96.8	98.7	116	viability, T/C [21]: 133%; viability, T/C [22]: 149%; viability, T/C [23]: 134%; viability, T/C [24]: 119%; viability, T/C [25]: 114%; viability, T/C [26]: 119%; viability, T/C [27]: 136%; viability, T/C [28]: 152%; viability, T/C [29]: 139%; viability, T/C [30]: 114%; viability, T/C [31]: 127%; viability, T/C [32]: 106%; viability, T/C [33]: 103%; viability, T/C [34]: 118%; viability, T/C [35]: 123%
COc1cc(Nc2ncc3c(n2)-c2ccc(Cl)cc2C(c2c(F)cccc2OC)=NC3)ccc1C(=O)O + CC(CO)NC(=O)c1cc(-c2ccc(Cl)cc2)nn(-c2cnn(C)c2)c1=O	< 5.00	< 5.00	< 5.00	< 5.00	< 5.00	96.9	95.2	91.4	84.4	86.4	88.9	98.7	90.3	91.3	86.6	93.5	85.5	90.6	97.3	95.5	viability, T/C [21]: 76.4%; viability, T/C [22]: 87.9%; viability, T/C [23]: 87.3%; viability, T/C [24]: 101%; viability, T/C [25]: 104%; viability, T/C [26]: 95.2%; viability, T/C [27]: 85.7%; viability, T/C [28]: 82%; viability, T/C [29]: 84.9%; viability, T/C [30]: 91.2%; viability, T/C [31]: 102%; viability, T/C [32]: 86.9%; viability, T/C [33]: 93.9%; viability, T/C [34]: 88.6%; viability, T/C [35]: 94.5%
COc1cccc2c1C(=O)c1c(O)c3c(c(O)c1C2=O)CC(O)(C(=O)CO)CC3OC1CC(N)C(O)C(C)O1 (configuration not stated) + Cc1cncc(-c2nc(NCCc3c[nH]c4ccccc34)c3ncn(C(C)C)c3n2)c1	< 5.00	5.26	5.61	5.87	6.08	92.1	92.6	90.2	80.4	96.5	50.4	89.7	92.5	88.3	84.8	70.6	28.4	89.6	97	92.2	viability, T/C [21]: 89.6%; viability, T/C [22]: 39.2%; viability, T/C [23]: 0.75%; viability, T/C [24]: 91.3%; viability, T/C [25]: 91.6%; viability, T/C [26]: 93.6%; viability, T/C [27]: 67.6%; viability, T/C [28]: 0.25%; viability, T/C [29]: 0.22%; viability, T/C [30]: 111%; viability, T/C [31]: 96%; viability, T/C [32]: 93.6%; viability, T/C [33]: 42%; viability, T/C [34]: 0.4%; viability, T/C [35]: 0.25%
Nc1ccn(C2OC(CO)C(O)C2(F)F)c(=O)n1 (configuration not stated)	–	–	–	–	–	–	–	–	–	–	–	–	–	–	–	–	–	–	–	–	viability, T/C (compound 0.0316 µM): 92.4% and 67.2% and 87.8%; viability, T/C (compound 0.1 µM): 73.3% and 58.7% and 72.8%; viability, T/C (compound 0.316 µM): 69.8% and 60.6% and 73.5%; viability, T/C (compound 1 µM): 63% and 53.5% and 70.8%; viability, T/C (compound 3.16 µM): 71.4% and 61.4% and 66.6%; viability, T/C (compound 10 µM): 73.7% and 62.2% and 66.3%; pIC50 (curve of compound): < 5.00
